One may read the IC50 as the point on the concentration scale where inhibition reaches its midpoint.

Counter-ions that a name gives are not always drawn. Like-named read-outs stand apart in the source and are kept apart here. Where only a bound is given, the exact number is not on record here.

For one assay, the system named is TTXs sodium channels. Description: TTXs-sodium channel influx assay (fluorescence, ND7/23 cell line). Particulars: ND7/23 cells, veratridine 100 μM; read-out: Na+ influx IC50. It is filed as cell-based, rat. The protocol: ND7/23 rat dorsal root ganglion-derived cell line endogenously expresses a mixed population of TTXs sodium channels. These cells lack of TTXr sodium channels as shown by the absence of their respective transcripts.
ND7/23 cells were grown in DMEM supplemented with 10% FBS and 1 mM sodium piruvate. The cells were seeded at 50,000 cells/well on 96 poly-L-lysine-coated plates and further incubated for 18-24 h before use.
The Membrane Potential Kit Assay (Molecular Devices), based on a negatively charged fluorescent dye able to monitor changes in membrane potential caused by the sodium influx due to the channel opening, was used for the assay.
Cells were incubated with the dye loading for 30 minutes at 25° C. Then, 100 nM of the toxin Anemonia sulcata (used as enhancer of the channel opener response) alone or in the presence of TTX (as reference standard) or test compound were added for further 15 minutes.
The fluorescence (excitation:530 nm, emission: 565 nm wavelength) was measured before and after (40-45 s) the automated injection of the sodium channel opener veratridine (100 μM) using a Victor plate reader (Perkin Elmer).
(§1) The inhibition curves were calculated from 5 concentrations, each in triplicate, and the IC50 determined using linear regression analysis.

The target of another assay is MAO-B (Rattus norvegicus (Rat), UniProt P19643). Description: In vitro MAO-B enzyme activity assay (radioenzymatic, rat brain mitochondria). The class given is biochemical. Conditions: 14C-PEA 0.5 μM. The protocol: Male Wistar rats (Harlan, Italy weighing 175-200 g) were sacrificed under light anaesthesia and brains were rapidly removed and homogenized in 8 volumes of ice-cold 0.32 M sucrose buffer containing 0.1 M EDTA, pH 7.4. The crude homogenate was centrifuged at 2220 rpm for 10 minutes and the supernatant recovered. The pellet was homogenized and centrifuged again. The two supernatants were pooled and centrifuged at 9250 rpm for 10 minutes at +4° C. The pellet was resuspended in fresh buffer and centrifuged at 11250 rpm for 10 minutes at +4° C. The resulting pellet was stored at −80° C. The enzyme activity was assessed with a radioenzymatic assay using the substrate ^14C-phenylethylamine (PEA) specific for MAO-B. The mitochondrial pellet (500 μg protein) was resuspended in 0.1 M phosphate buffer (pH 7.4). 200 μl of the suspension were added to a 50 μl solution of the test compound or buffer, and incubated for 30 min at 37° C. (preincubation) then the substrate (50 μl) was added. The incubation was carried out for 10 minutes at 37° C. (^14C-PEA, 0.5 μM). The reaction was stopped by adding 0.2 ml of perchloric acid. After centrifugation, the deaminated metabolites were extracted with 3 ml of toluene and the radioactive organic phase containing the neutral and/or acidic metabolites formed as a result of MAO-B activity was measured by liquid scintillation spectrometry at 90% efficiency. The MAO-B activity was expressed as nmoles of substrate transformed/mg protein/min.
Chain of MAO-B (P19643 whole entry): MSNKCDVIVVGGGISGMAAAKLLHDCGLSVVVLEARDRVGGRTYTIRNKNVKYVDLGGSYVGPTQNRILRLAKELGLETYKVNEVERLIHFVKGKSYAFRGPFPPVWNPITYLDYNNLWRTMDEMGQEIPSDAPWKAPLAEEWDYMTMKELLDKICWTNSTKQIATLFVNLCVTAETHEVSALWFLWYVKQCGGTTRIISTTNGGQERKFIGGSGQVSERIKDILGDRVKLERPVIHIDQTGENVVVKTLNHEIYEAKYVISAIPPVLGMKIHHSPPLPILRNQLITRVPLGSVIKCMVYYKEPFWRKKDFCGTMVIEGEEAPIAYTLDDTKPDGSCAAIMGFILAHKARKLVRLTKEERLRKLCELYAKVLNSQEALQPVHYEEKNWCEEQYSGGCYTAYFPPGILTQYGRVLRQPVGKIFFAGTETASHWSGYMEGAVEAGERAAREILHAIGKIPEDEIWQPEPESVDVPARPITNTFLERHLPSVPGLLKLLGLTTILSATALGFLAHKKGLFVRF

In a further assay the test system is mice. The assay is described as follows: Maximal electroshock test (MES) in mice. Particulars: for ED50: Mus musculus, po, read-out: ED50 (mg/kg p.o.). It is filed as in vivo. The text has this:
The maximal electroshock test (MES) is used commonly in the screening of anti-epileptic drugs in rodent models.
Animals and Apparatus: Male CD1 mice weighing 25 g were used. The procedure described by White et al. (White H. S., Woodhead J. H., Franklin M. R., Swinyard E. A., and Wolf H. H. Antiepileptic Drugs (1995) 4th ed: 99-110, Raven Press, Ltd., New York) was followed. An Ugo Basile electroconvulsive generator (Model ECT UNIT 7801) was used to deliver an electrical stimulus sufficient to produce a hindlimb tonic extensor response in at least 97% of control animals. The stimulus was delivered intra-aurally through clip electrodes in mice (0.7 s of a 40 mA shock, with a pulse train of 80 Hz having a pulse duration of 0.4 ms). The acute effect of compounds administered intraperitoneally (i.p.), subcutaneously (s.c.), intravenously (i.v.) or orally (p.o.) 5-120 minutes before MES induction were examined and compared with a vehicle control group. Ten mice were studied per group. Complete suppression of the hindlimb tonic extensor component of seizures was taken as evidence of anticonvulsant activity.
The compounds of the invention were administered p.o. or i.v., at the doses of 0.1-100 mg/kg.
A general note: In the maximal electroshock model the usual endpoint is tonic extension of the hind limbs.

A further assay deals with L-type calcium channels. Description: Calcium channel influx assay (fluorescence, AtT20 cell line). It is filed as cell-based, mouse. Conditions: AtT20 cells, 100 mM KCl depolarization; read-out: Ca++ influx IC50. The protocol: AtT20/D16v-F2 mouse pituitary tumour cell line preferentially expresses L-type calcium channels.
AtT20 cells were grown in DMEM with 10% of FBS, 4 mM glutamine. The cells were seeded at 200,000 cells/well on 96 poly-L-lysine-coated plates and further incubated for 18-24 h, before use.
The Ca^++ Kit Assay (Molecular Devices), which is based on a fluorescent calcium indicator to detect the calcium influx determined by depolarizing conditions, was used for the assay.
Cells were incubated with the calcium dye loading for 30 min at 37° C. Then, ω-conotoxin alone (1 μM) or in presence of nifedipine (as reference standard) or test compound were added for further 15 min.
The fluorescence (excitation: 485-emission: 535 nm wavelength) was measured before and after (30-40 sec) the automated injection of 100 mM KCl depolarizing solution using a Victor plate reader (Perkin Elmer).
as §1

Assay [1] has as its system Na+ currents in ND7/23 cells (TTX-s). Description: Patch clamp evaluation of Na+ currents blockade in ND7/23 cell line. It is filed as cell-based, rat. Particulars: for Ki: calculated from Kr and Kdep, read-out: Ki (apparent affinity for the inactivated state). The protocol:
ND7/23 (ECACC No 92090903 from SIGMA), is a hybrid cell line derived from a neonatal rat DRG fused with the mouse neuroblastoma N18Tg2 (Wood et al., Proc. Biol. Sci., 1990 September, 241(1302), 187-194).
The molecular identity of the channels responsible for the TTX-s conductance is unknown but it is presumed that TTX-s conductance arises from the activity of a mixed population of sodium channels.
Cells are routinously maintained in DMEM with 10% of FBS, 4 mM glutamine, 1 mM sodium piruvate. The day before the patch clamp experiment cells are detached and seeded at 100,000 cells/polylysine-coated 35 mm Petri dish.
Experiments on ND7/23 cells were carried out using standard whole cell patch clamp methods (Hamill et al., Pfugers Arch., 1981 August, 391(12), 85-100), as described in previous section.
To test the effect of compounds on sodium currents in ND7/23 cells, holding membrane potential was set at −90 mV, then a two step protocol was used to determine the voltage dependence of the block. Sodium currents were activated by a 30 ms step pulse to 0 mV (test pulse) from a 2000 ms preconditioning potential of −110 mV (resting condition) and a potential of ˜−70 mV (half maximal steady-state condition).
Tonic block of resting and depolarized currents at a given drug concentration was calculated as the difference between the peak Na^+ current in the control external bath solution and peak currents with the test substance divided by control peak.
Drug concentration-inhibition curves were obtained by plotting tonic blocks in the resting and depolarized condition, versus drug concentrations. Dose-response curves were fitted to the tonic block data, according to the logistic equation: y=A2+(A1−A2)/[1+(x/IC50)p]. A1 and A2 are fixed values of 0 and 1 corresponding to 0 and 100% current inhibition, x is the drug concentration, IC50 is the drug concentration resulting in 50% current inhibition and p is the corresponding slope factor.
The apparent affinity of drug for the inactivated state (Ki) was calculated according to the equation 1/Kdep=h/Kr+(1−h)/Ki where Kr is the affinity of drug for the resting/closed state; Kdep is the IC50 in the depolarized condition, h and (1−h) are the fractions of channels present at the rest. and dep. potentials, respectively.
Control bath solution contained (mM): NaCl 80, Choline HCl 40, CaCl2 1.3, MgCl2 2, KCl 2, CdCl2 0.4, NiCl2 0.3, TEACl 20, Hepes 10, Glucose 10.
Internal pipette solution consisted of (mM): CsF 65, CsCl 65, NaCl 10, CaCl2 1.3, MgCl2 2, Hepes 10, EGTA 10, MgATP 1.
Compounds were dissolved as stock solutions (20 mM) in DMSO. They were diluted to the final concentrations in the external solution.

Setting [2] is: read-out: IC50 depolarized, preconditioning potential ~-70 mV.
[3] abbreviates: read-out: IC50 resting (Kr), preconditioning potential -110 mV.

Consider `CCCCOc1cccc(CCNC(C)C(=O)N(C)C)c1.Cl` (stereo not shown) [2-[2-(3-Butoxyphenyl)-ethylamino]-N,N-dimethylpropanamide hydrochloride], for which the IC50 is 1.1 µM with TTXs sodium channels and greater than 300 µM against MAO-B. In the assay on mice (mice, MES, p.o.), the ED50 amounted to 6.5 mg/kg. The “% protection 10 mg/kg p.o.” value in the assay on mice (mice, MES) was found to be 60%.

In the case of `CCCCCOc1cccc(CCNCC(=O)N(CCC)CCC)c1` [2-[2-(3-Pentyloxyphenyl)-ethylamino]-N,N-dipropylacetamide hydrochloride], the IC50 in the assay with TTXs sodium channels is 1.1 µM; with L-type calcium channels it was 6.9 µM.

Take `CCCCOc1cccc(CCNC(C)(C)C(=O)N(C)C)c1` [2-[2-(3-Butoxyphenyl)-ethylamino]-2,N,N-trimethylpropanamide hydrochloride]: the IC50 in the assay on TTXs sodium channels was 0.7 µM.

Take `CCCCOc1cc(CCNCC(=O)N(C)C)ccc1OC` [2-[2-(3-Butoxy-4-methoxyphenyl)-ethylamino]-N,N-dimethylacetamide hydrochloride]: the IC50 against MAO-B was greater than 300 µM.

Take `CCCCOc1cccc(CCNCC(=O)NC)c1.Cl` [2-[2-(3-Butoxyphenyl)-ethylamino]-N-methylacetamide hydrochloride]: half-maximal inhibition on MAO-B (IC50) required 110 µM. In addition, the ED50 in the assay with mice (mice, MES, p.o.) is 12.1 mg/kg. In the assay on mice (mice, MES), the “% protection 10 mg/kg p.o.” value is listed as 30%.

On to `CCCCOc1cc(CCNCC(=O)N(C)C)ccc1C.Cl` [2-[2-(3-Butoxy-4-methylphenyl)-ethylamino]-N,N-dimethylacetamide hydrochloride], for which the IC50 in the assay with TTXs sodium channels came out at 0.7 µM; in the assay on L-type calcium channels, 10 µM. For the same molecule, in the assay with mice (mice, MES), the “% protection 10 mg/kg p.o.” value was 40%.

On to `CCCCOc1cccc(CCNCC(=O)N(CC)CC)c1` [2-[2-(3-Butoxyphenyl)-ethylamino]-N,N-diethylacetamide hydrochloride], for which the figures for the IC50 in the assay on TTXs sodium channels and in the assay on L-type calcium channels were 0.6 µM and 6.7 µM, respectively.

`CCCCOc1ccc(F)c(CCNCC(=O)N(C)C)c1F.Cl` [2-[2-(3-Butoxy-2,6-difluorophenyl)-ethylamino]-N,N-dimethylacetamide hydrochloride]: the values for the IC50 in the assay with TTXs sodium channels and against MAO-B were 2.6 µM and greater than 300 µM, respectively. In addition, the ED50 in the assay on mice (mice, MES, p.o.) was 2 mg/kg. Moreover, in the assay on mice (mice, MES), the “% protection 10 mg/kg p.o.” value is given as 100%.

In the case of `CCCCSc1cccc(CCNCC(=O)N(C)C)c1` [2-[2-(3-Butylthiophenyl)-ethylamino]-N,N-dimethylacetamide hydrochloride], the concentration for half-maximal inhibition (IC50) with L-type calcium channels was determined as 7.2 µM.

For `CCCCOc1cccc(CCNCC(=O)N2CCCC2)c1` [2-[2-(3-Butoxyphenyl)-ethylamino]-1-pyrrolidin-1-yl-ethanone hydrochloride], the IC50 with TTXs sodium channels came to 2.1 µM.

For the molecule `CCCCOc1cccc(CCNCC(=O)N(CCC)CCC)c1` [2-[2-(3-Butoxyphenyl)-ethylamino]-N,N-dipropylacetamide hydrochloride], the IC50 was found to be 0.5 µM in the assay on TTXs sodium channels and 1.1 µM in the assay with L-type calcium channels.

Take `CCCCCCOc1cccc(CCNCC(=O)N(C)C)c1.Cl` [2-[2-(3-Hexyloxyphenyl)-ethylamino]-N,N-dimethylacetamide hydrochloride]: the 50% inhibitory concentration (IC50) stood at 0.5 µM in the assay on TTXs sodium channels and 4 µM with L-type calcium channels. Also, the ED50 in the assay with mice (mice, MES, p.o.) is 4.6 mg/kg. The “% protection 10 mg/kg p.o.” value in the assay with mice (mice, MES) stood at 100%.

For `CCCCOc1cccc(CCNCC(=O)N(C)C)c1F` [2-[2-(3-Butoxy-2-fluorophenyl)-ethylamino]-N,N-dimethylacetamide], the Ki in assay [1] was 1 µM. Besides, the values for the IC50 in assay [1] (setting [2]) and in assay [1] (setting [3]) were 1.7 µM and 13 µM, respectively.

For the molecule `CCCCOc1cccc(CCNCC(=O)N(CCCC)CCCC)c1` [2-[2-(3-Butoxyphenyl)-ethylamino]-N,N-dibutylacetamide hydrochloride], the concentration for half-maximal inhibition (IC50) in the assay with TTXs sodium channels was found to be 1.2 µM; in the assay with L-type calcium channels, 1.8 µM.

Take `CCCCOc1cccc(CCNCC(=S)N(C)C)c1` [2-[2-(3-Butoxyphenyl)-ethylamino]-N,N-dimethylthioacetamide hydrochloride]: the IC50 in the assay on TTXs sodium channels is 1.2 µM; with L-type calcium channels it was 7.6 µM.

For the molecule `CN(C)C(=O)CNCCc1cccc(OCCCC(F)(F)F)c1` [2-{2-[3-(4,4,4-Trifluorobutoxy)phenyl]-ethylamino}-N,N-dimethylacetamide hydrochloride], in the assay on L-type calcium channels, the IC50 came out at 9.3 µM.

For `CCCCCOc1cccc(CCNCC(=O)N(C)C)c1.Cl` [2-[2-(3-Pentyloxyphenyl)-ethylamino]-N,N-dimethylacetamide hydrochloride], the Ki in assay [1] was 0.5 µM. The IC50 in assay [1] (setting [2]) amounted to 0.7 µM; in assay [1] (setting [3]) it was 2.9 µM; in the assay on TTXs sodium channels, 0.5 µM; in the assay on L-type calcium channels, 8.3 µM. The ED50 in the assay with mice was 2.8 mg/kg. Also, the “% protection 10 mg/kg p.o.” value in the assay with mice (mice, MES) was 100%.

Source of the values: patent publication US9051240B2, “Substituted 2-[2-(phenyl) ethylamino] alkaneamide derivatives and their use as sodium and/or calcium channel modulators” (Newron Pharmaceuticals S.P.A., priority 2007, dated 2015).
